Results as given in patent publication US9512180B2, “Compstatin analogs” (THE REGENTS OF THE UNIVERSITY OF CALIFORNIA, priority 2012, dated 2016).
Bridge positions count the residues as written; N and C are the ends. Square brackets hold non-standard residues; d marks the D form. Peptide text beside a SMILES is read from it. Trp(1-Me) = Cn1cc(C[C@H](N)C(=O)O)c2ccccc21

Experiments:
[1] = test system: complement alternative pathway (AP); experiment: C3b ELISA (inhibition of C3b formation); format: biochemical, human; conditions: for IC50: Table 9, means from three independent experiments, read-out: IC50, C3b ELISA
Method: Inhibition of the complement alternative pathway (AP) by compstatin family peptides was assayed by ELISA. Peptides were dissolved in phosphate buffered saline (PBS, 150 mM). Initial peptide concentrations were calculated using the Beer-Lambert Law with an extinction coefficient of 5,500 (1/M·cm) for Trp and 5,470 (1/M·cm) for methylated-Trp present in the sequence, at 280 nm. Nunc Maxisorp 96-well plates were coated with 1 μg lipopolysaccharides (LPS) from Salmonella enteriditis for ˜16 h at room temperature. Plates were washed three times with PBS/0.05% Tween-20 (PBS-T) between each step. Plates were blocked with 4% bovine serum albumin (BSA) in PBS-T for 1 h at 37° C. Serial peptide dilutions were performed in 96-well plates, using gelatin veronal-buffered saline with 5 mM MgCl2 and 10 mM EGTA (GVBS-MgEGTA). Normal human serum (Complement Technology Inc., Tyler, Tex., USA) was diluted in GVBS-MgEGTA and mixed with compstatin serial dilutions to a final concentration of 30%. Serum diluted in GVBS-MgEGTA and GVBS (containing 20 mM EDTA) were used as positive and negative controls for complement activation, respectively. Dilutions were preincubated for 15 minutes at room temperature, transferred to ELISA plates, and incubated for 1 h at 37° C. Generation of C3b and C5b-9 were assayed using horseradish peroxidase (HRP)-conjugated anti-C3 (MP Biomedicals, Solon, Ohio, USA) and anti-05b-9 aEll (Abcam, Cambridge, Mass., USA), respectively. Plates were washed and incubated with either anti-C3-HRP (1:5000 in 1% BSA/PBS-T) or anti-05b-9 (1:1000 in 1% BSA/PBS-T) for 1 h at 37° C. For C5b-9 detection, primary antibody incubation was followed by incubation with anti-mouse-HRP (BioRad, Hercules, Calif., USA) for 1 h at 37° C. (1:5000 in 1% BSA/PBS-T). Bound C3b and C5b-9 were quantified using a 3,3′,5,5′-tetramethylbenzidine substrate solution containing urea hydrogen peroxide in 0.11 M sodium acetate buffer, followed by a 1 N H2SO4 acid stop. Plates were measured spectrophotometrically at 450 nm. Percent inhibition of C3b and C5b-9 deposition was plotted against peptide concentration and the data was fitted to a logistic dose response curve with Prism software (GraphPad, San Diego, Calif., USA) to determine IC50 values.
In all assays, MgEGTA was used to chelate Ca′ ions required for classical/lectin pathway complement activation, while providing Mg′ necessary for AP activation. ELISAs allow for direct detection of C3b and C5b-9 formed during AP activation, while erythrocyte lysis assays provide a functional assessment of AP-mediated hemolysis in serum. […] Table 9 summarizes the IC50 values derived from the three different assays. […] The relative potencies of the peptides, based on the measured ICH values, are consistent across all three assays (Peptide III˜Peptide VI˜Peptide IX>Peptide I>Parent). Based on the assay conditions used in this study, peptides inhibited C5b-9 formation with moderately better efficacy than formation of C3b, while slightly higher concentrations were necessary to inhibit AP-mediated hemolysis.

[2] = test system: complement activation; conditions: alternative pathway-mediated erythrocyte lysis; cited from earlier work
[3] = test system: complement system; experiment: Preliminary ELISA-based complement system inhibition assays, human serum; format: biochemical; conditions: preliminary data
Description: For some of the peptides studied here, W1, W13, R1, and S-1S0, there is experimental evidence for inhibitory activity against hC3. […] The structural rationale was that the positively charged backbone amino group was disrupting the hydrophobic cluster at the termini (spanning residues 11-C2-V3-V4/C12/T13 of native compstatin), which was deemed necessary for binding and activity before the availability of the structure of the C3c-W4A9 complex, and that upon removal of the positive charge by acetylation the hydrophobic cluster was fortified and contributed to the 3-fold increase in activity. […] The peptide with the diserine extension is expected to be active, as the diserine was present at the N-terminus of the original 32-amino acid peptide that was identified in the phage-display and a subsequent study.

[4] = Aqueous solubility by concentration measurement (absorbance at 280 nm) of saturated peptide solutions; format: physicochemical
Method: The relative lipophilicities of Peptides I, III, VI, IX, and Parent are inversely consistent with solubilities as determined via concentration measurement (absorbance at 280 nm) of saturated peptide solutions, with Peptides I, III, and Parent having approximate aqueous solubilities of >1 mM, Peptide VI>500 μM, and Peptide IX<500 μM.

| SMILES | inhibition less than other peptides ([1]; C3b inhibition in ELISA, versus Peptides I, III, VI, IX) | IC50 [1] [µM] | IC50 [2] [µM] | inhibitory activity in human serum (in words) [3] | solubility [4] [µM] |
| --- | --- | --- | --- | --- | --- |
| CC[C@H](C)[C@H](N)C(=O)N[C@H]1CSSC[C@@H](C(=O)N[C@H](C(N)=O)[C@@H](C)O)NC(=O)[C@H](CCCN=C(N)N)NC(=O)[C@H](Cc2cnc[nH]2)NC(=O)[C@H](Cc2cnc[nH]2)NC(=O)CNC(=O)[C@H](Cc2c[nH]c3ccccc23)NC(=O)[C@H](CC(=O)O)NC(=O)[C@H](CCC(N)=O)NC(=O)[C@H](C(C)C)NC(=O)[C@H](C(C)C)NC1=O [Parent, ICV VQDWGH HRCT-NH2, reference compound] | 10- to 15 fold | 35 | 12 | – | – |
| CC(=O)N[C@@H](CCCNC(=N)N)C(=O)N[C@H]1CSSC[C@@H](C(=O)N[C@H](C(N)=O)[C@@H](C)O)NC(=O)[C@H](CCCNC(=N)N)NC(=O)[C@H](Cc2c[nH]cn2)NC(=O)[C@H](C)NC(=O)CNC(=O)[C@H](Cc2c[nH]c3ccccc23)NC(=O)[C@H](CC(=O)O)NC(=O)[C@H](CCC(N)=O)NC(=O)[C@H](Cc2c[nH]c3ccccc23)NC(=O)[C@H](C(C)C)NC1=O [Peptide I, Ac- RCV WQDWGA HRCT-NH2] (Ac-RCVWQDWGAHRCT-NH2; disulfide 2-12) | – | 2.58 | – | higher than those of native compstatin and slightly lower than those of the W4A9 analog | > 1000 |
| CC(=O)N[C@@H](CCCNC(=N)N)C(=O)N[C@H]1CSSC[C@@H](C(=O)N[C@H](C(N)=O)[C@@H](C)O)NC(=O)[C@H](CCCNC(=N)N)NC(=O)[C@H](Cc2c[nH]cn2)NC(=O)[C@H](C)NC(=O)CNC(=O)[C@H](Cc2c[nH]c3ccccc23)NC(=O)[C@H](CC(=O)O)NC(=O)[C@H](CCC(N)=O)NC(=O)[C@H](Cc2cn(C)c3ccccc23)NC(=O)[C@H](C(C)C)NC1=O [Peptide III, Ac- RCV meWQDWGA HRCT-NH2] (Ac-RCV[Trp(1-Me)]QDWGAHRCT-NH2; disulfide 2-12) | – | 1.42 | – | – | > 1000 |
| CC[C@H](C)[C@H](NC(=O)[C@H](CO)NC(=O)[C@H](CCCNC(=N)N)NC(C)=O)C(=O)N[C@H]1CSSC[C@@H](C(=O)N[C@H](C(N)=O)[C@@H](C)O)NC(=O)[C@H](CCCNC(=N)N)NC(=O)[C@H](Cc2c[nH]cn2)NC(=O)[C@H](C)NC(=O)CNC(=O)[C@H](Cc2c[nH]c3ccccc23)NC(=O)[C@H](CC(=O)O)NC(=O)[C@H](CCC(N)=O)NC(=O)[C@H](Cc2cn(C)c3ccccc23)NC(=O)[C@H](C(C)C)NC1=O [Peptide VI, Ac-RS-ICV meWQDWGA HRCT-NH2] | – | 1.74 | – | – | > 500 |
